Here are results for one molecule from ChEMBL document CHEMBL5252536, “Discovery of VU0467485/AZ13713945: An M4 PAM Evaluated as a Preclinical Candidate for the Treatment of Schizophrenia” (ACS Med Chem Lett, 2017).

As usually defined, the EC50 is the midpoint of the concentration-response curve. As a reminder, the IC50 is the concentration at which inhibition is half-maximal.

Bounds are passed on as bounds.

The nature of data set [1]: Elimination half life in Sprague-Dawley rat at 3 mg/kg,po or 1 mg/kg,iv by LC-MS/MS analysis. It counts as ADME, organism-based. The note with it: in vivo, read-out: beta t1/2 (converted).
Data set [2] is described as follows: Positive allosteric modulator activity at cynomolgus monkey M2 receptor expressed in CHO cells co-expressing Gqi5 in presence of EC20 concentration of acetylcholine by calcium mobilization assay. The format is cell-based. The following applies: Macaca fascicularis. A general note: A change in cytosolic calcium serves as a functional read-out for many receptors and channels.

Data set [3] concerns the target T1, Cytochrome P450 1A2 (Homo sapiens, UniProt P05177).
T1 sequence (P05177 whole entry): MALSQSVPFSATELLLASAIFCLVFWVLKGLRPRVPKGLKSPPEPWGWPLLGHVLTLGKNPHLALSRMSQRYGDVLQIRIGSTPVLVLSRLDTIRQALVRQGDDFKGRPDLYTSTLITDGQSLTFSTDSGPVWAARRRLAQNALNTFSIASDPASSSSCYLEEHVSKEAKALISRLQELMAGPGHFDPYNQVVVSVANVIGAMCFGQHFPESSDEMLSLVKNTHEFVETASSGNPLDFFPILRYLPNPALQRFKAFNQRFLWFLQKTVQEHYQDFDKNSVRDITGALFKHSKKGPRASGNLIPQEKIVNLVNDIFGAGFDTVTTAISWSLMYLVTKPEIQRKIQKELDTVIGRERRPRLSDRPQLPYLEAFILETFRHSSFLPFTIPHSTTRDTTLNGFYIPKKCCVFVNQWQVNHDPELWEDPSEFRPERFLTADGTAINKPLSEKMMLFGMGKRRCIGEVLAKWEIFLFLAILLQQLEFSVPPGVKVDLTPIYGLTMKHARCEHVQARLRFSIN
Nature of the data set: Activation of CYP1A2 in human hepatocyte using phenacetin as substrate preincubated for 5 days followed by substrate addition and measured after 1 hr by LC-MS/MS analysis. It counts as ADME, cell-based.

A short description of data set [4]: Genotoxicity in Salmonella typhimurium TA98 by Ames test. The note with it: salmonella enterica subsp. enterica serovar typhimurium. The format is toxicity. (In the Ames test, an excess of revertant colonies over the control signals mutagenicity.)
The target in data set [5] is GABA-A receptor; anion channel. Nature of the data set: Inhibition of rat GABAA receptor. The format is protein-complex assay.
The test system of data set [6] is Rattus norvegicus. Description: Antipsychotic activity in MK-801-induced hyperlocomotion activity in rat assessed as minimum effective dose administered orally preincubated for 30 mins followed by MK-801 addition and measured after 60 mins by open field test. The format is functional. The note with it: 1.5 h, route po, time 90 min, read-out: MED.
For data set [7], the system named is Rattus norvegicus. Nature of the data set: Reversal of MK-801-induced hyperlocomotion activity in rat at 10 to 30 mg/kg,po preincubated for 30 mins followed by MK-801 addition and measured after 60 mins by open field test relative to control. It counts as functional. The note with it: dose 10-30 mg/kg, time 90 min, 1.5 h.

On to `COc1ccc(CNC(=O)c2sc3nnc(C)c(C)c3c2N)cc1F`, for which the half-life in data set [1] is 4.2 h. Moreover, the concentration giving a half-maximal response (EC50) in data set [2] is over 30 µM; in data set [3] it was over 50 µM. For the same molecule, the Activity entry is given as “Non-Toxic” in data set [4] and 41.1% in data set [7]. In addition, inhibition in data set [5] was half-maximal at 1.2 µM (IC50). The minimal effective dose in data set [6] was found to be 30 mg/kg.
